{"source": "patent US7718613B2", "about": "“Armed peptides” (priority 2001, dated 2010)", "key": {"[1]": {"assay": "Cytolytic activity of pH-responsive peptides on calcein liposomes at different pH", "conditions": "liposomes 4 μM lipid; 14 nM peptide 2, 20 nM peptide 7, 45 nM peptide 9; FIG. 4", "method": "Liposomes encapsulating calcein dye were prepared by an extrusion method (Biochim. Biophys. Acta, 812 (1985) 55). Phophatidylcholine (50 mg) and cholesterol (13.08 mg) which had been dissolved in 4 ml of 50% v/v chloroform methanol solution were evaporated to form a lipid film in a round bottom flask. If it is essential to follow the fate of liposomes a lipohilic-dye such as DiI (50 μg) could be incorporated into the lipid film prior to hydration. The film was then hydrated with 4 ml of 120 mM calcein solution prepared in 10 mM sodium phosphate 20 mM Sodium chloride buffer pH 7.4. Liposomes were formed by 10 extrusion cycles through 0.2 micron or 0.1 um polycarbonate filters using the Liposofast 100 (Avestin) extruder device. The non encapsulated dye was removed by gel filtration on a PD-10 column using iso-osmotic buffer. The total lipid concentration of the liposomes was measured by the Stewart assay and adjusted to 3 mg per ml.\nThe cytolytic activity of pH-responsive peptides was followed by adding 2 or 3 μl of liposomes to a 2 ml assay volume and continually recording fluorescence. Buffers were made of 10 mM Na phosphate, 140 mM NaCl, 1 mM EDTA, 5 mM HEPES at several different pH values. […] In the experiments 2 ml of 10 mM Na phosphate, 140 mM NaCl, 1 mM EDTA, 5 mM HEPES buffer (at pH values indicated on the figure) containing liposomes (4 μM lipid) and (A) 14 nM peptide 2, (B) 20 nM peptide 7 (C) 45 nM peptide 9. In all cases peptides were added indicated by sharp dip in fluorescence were used. The pH values are as indicated for each trace. […] In general, it is well documented that many proteins including receptors, enzymes and antibodies has pH optimum usually closer to physiological value. On either side of the pH optimum the binding activity is reduced. However in general as activity profile is typically bell shape most proteins would tolerate at least a pH unit shift from optimum. Obviously the closer the results are to pH 7.4 the higher chances their are for efficient binding with target proteins or receptors."}, "[2]": {"assay": "Liposome-peptide integral complex: pH-triggered calcein release and stability", "excerpt": "A fatty acid incorporated on the N-terminal of peptide anchors the sequence with liposomes to form integral complex which can then be used as single stable reagent that can be triggered to release the contents-of the liposomoes when the pH is ideal (i.e physiological 7.4) or acidic (e.g 6.2). In the first instance we prepared the liposome-peptide complex at a predetermined ratio of lipid-to peptide (30:1) in pH 8 buffer using peptide 10. […] The complex between liposomes and peptide was formed by adding peptide to […] of 10 mM NaP containing 140 mM NaCl, 1 mM EDTA, 5 mM Hepes pH 8 buffer, containing 100 μl of calcein encapsulating liposomes. The mixture was incubated for 20 mins to form the complex prior to use. In order to ascertain that the lysis is occurring due to the formation of complex and not as the action of the peptide per se it was essential to purify the liposome-peptide complex. The peptide to lipid ratio in this complex is 1:30. The complex was applied to a Sepharose CL-6B column. Fractions corresponding to liposomes were collected as clearly visible to the eye. Aliquots of these fractions were then tested for lytic activity at acidic and physiological pH values. The key aim was to establish that the peptide is liposome associated and would thus be eluted with liposome fraction in the void volume. We used 100 μl complex (a column purified fraction) and followed the release of Calcein at two different pH values.\nFIG. 8A. […] Upper curve pH 5.8. Lower curve pH 7.4.\n2 ml buffer (10 mM Na phosphate, 140 mM NaCl, 1 mM EDTA, 5 mM HEPES)+50 μl purified complex. Lipsomes used were 50 nm extruded. Curves top to bottom are pH 6.2, 6.4, 6.7, 7.0, 7.4\nComplex 20 μl liposomes+60 μl pH 8 buffer+20 μl peptide (0.1 mg/ml) prepared and used within 2 minutes. 10 μl was added to each of the cuvettes containing 2 ml buffers. Top curve pH 6.2 (triton was added towards the end indicated by sharp dip in fluorescence to check full lysis), the lower curve is at pH 7.4. Samples measured simultaneously.\n5 μL of complex in 2 ml of buffer tested 20 minutes after preparation. Upper curve pH 6.2, Lower curve pH 7.4.\n5 μL of complex in 2 ml of buffer tested 5 hrs after preparation. Upper curve pH 6.2 and lower curve pH 7.4.\n5 μL of complex in 2 ml of buffer tested 24 hrs after preparation curve pH 6.2, Lower curve pH 7.4."}, "KHT tumour": {"test_system": "KHT tumour", "assay": "Ex vivo release of calcein in tumour slices after i.v. peptide liposome complex", "design": "species or system C3H mice", "conditions": "200 μl complex i.v., tumours excised 3 hrs post inoculum, buffer pH 8 changed to pH 5.8; FIG. 11", "method": "Liposomes encapsulating Calcein (120 mM) and with label DiI (the dye to lipid ratio was around 100 μg dye: 100 mg PC) were used. C3H syngenic mice 8-10 weeks old weighing 20-25 g were used. Subcutaneous tumour was implanted using KHT cells (5×10^6 cells/animal) on the dorsal side after shaving the mice. Typically 200 μl of peptide liposome complex (100 μl of dual dye liposomes+100 μl of peptide 0.1 mg/ml) were administered intravenously per mice and tumours excised 3 hrs post inoculum. The tumour was removed aseptically and kept in PBS pH 8.0 buffer and thin sections (160 μm-200 μm) were cut on the slicing machine, and examined under a fluorescence microscope. The pH of the buffer was modulated by adding 400 μl of NaP buffer pH 5.8 while simultaneously removing 400 μl of pH 8 buffer. Changes in fluorescence intensity were recorded. The state of liposome peptide complex is then determined, whether intact or lysed by measuring fluorescence in tissue slices before-and after incubation in acidic buffer. The increase in fluorescence in the acidic buffer indicates the quantity of liposomes that were still intact and able to respond at the time of sacrifice."}}, "note": "The star is where a group is joined. Myristoyl = CCCCCCCCCCCCCC(=O)*"}
{"substance": "Myr-WEAALAEALAEALAEHLARALAEALEALAA-Amide (Myristoyl-WEAALAEALAEALAEHLARALAEALEALAA-NH2; SMILES CCCCCCCCCCCCCC(=O)N[C@@H](Cc1c[nH]c2ccccc12)C(=O)N[C@@H](CCC(=O)O)C(=O)N[C@@H](C)C(=O)N[C@@H](C)C(=O)N[C@@H](CC(C)C)C(=O)N[C@@H](C)C(=O)N[C@@H](CCC(=O)O)C(=O)N[C@@H](C)C(=O)N[C@@H](CC(C)C)C(=O)N[C@@H](C)C(=O)N[C@@H](CCC(=O)O)C(=O)N[C@@H](C)C(=O)N[C@@H](CC(C)C)C(=O)N[C@@H](C)C(=O)N[C@@H](CCC(=O)O)C(=O)N[C@@H](Cc1c[nH]cn1)C(=O)N[C@@H](CC(C)C)C(=O)N[C@@H](C)C(=O)N[C@@H](CCCNC(=N)N)C(=O)N[C@@H](C)C(=O)N[C@@H](CC(C)C)C(=O)N[C@@H](C)C(=O)N[C@@H](CCC(=O)O)C(=O)N[C@@H](C)C(=O)N[C@@H](CC(C)C)C(=O)N[C@@H](CCC(=O)O)C(=O)N[C@@H](C)C(=O)N[C@@H](CC(C)C)C(=O)N[C@@H](C)C(=O)N[C@@H](C)C(N)=O) [peptide 9]", "values": [{"measurement": "pH of triggering (pH profile of calcein release from liposomes)", "setting": "[1]", "value": "~7", "unit": "pH"}, {"measurement": "stability of the complex", "setting": "[2]; calcein/DiI liposomes, tested 20 minutes, 5 hrs and 24 hrs after preparation, pH 6.2 vs 7.4, FIGS. 8D, E, F", "value": "retention of the pH triggering of properties"}, {"measurement": "triggering properties of complex after purification", "setting": "[2]; peptide to lipid ratio 1:300, pH 6.2 to 7.4, FIG. 8B", "value": "triggering properties are retained"}, {"measurement": "release of calcein in tumour slices on acidification", "setting": "KHT tumour", "value": "able to trigger release of calcein"}]}
